Test system: CRE-dependent transcription (PKA/ERK/CREB intracellular signaling)
Experiment: luciferase reporter assay of CRE-dependent gene transcription activity in plasmid-transfected PC12 cells
Format: cell-based, rat
Protocol: In order to evaluate the gene transcription activity of each sample, the luciferase reporter assay was performed.
The luciferase assay is used to quantitatively analyze the transcription activity of a test material. In order to activate the transcription, various control sequences present in an upstream promoter of a gene are required.
In this embodiment, a plasmid was used in which a CRE sequence which was a control sequence activated by the PKA/ERK/CREB intracellular signaling and was present in an upstream promoter of a memory, and in which learning-related gene and a gene of a luciferase functioning as a luminescent enzyme were connected to each other.
When the test material activates the CRE-dependent transcription, the luciferase gene present at a downstream side is expressed, and the expression thereof is increased, so that a luciferase protein is increased.
PC12 cells (rat adrenal medulla pheochromocytoma derived cell line) were seeded in 96-well culture dish at a seeding density of 4.0×10^4 cells/well. Subsequently, the plasmid was transfected in the PC12 cell, and the cultivation was performed in a medium to which each of the samples was dripped. As the medium, an α-modified Dulbecco's modified Eagle's medium supplemented with 1% serum (DMEM) was used. […]

COc1ccc(-c2cc(=O)c3c(OC)c(OC)c(OC)c(OC)c3o2)cc1OC [Nobiletin, nobiletin]
concentration at which nobiletin has an enhancing action (in combination with Anredera cordifolia, suggested from ponkan's peel extract assumed to contain 1% nobiletin): ≤ 2 µg/mL | concentration at which nobiletin expresses the luciferase activity (nobiletin solution alone): 2 µg/mL
